Test results reported in patent EP4682141A1, “TRICYCLIC COMPOUND” (ONO Pharmaceutical Co., Ltd., priority 2023, dated 2024).
pEC50: −log10 of the molar value.

Legend:
EP1 = target: T1, EP1 (Homo sapiens, UniProt P34995); experiment: agonist activity on human EP1 receptor (intracellular calcium concentration, EP1-CHO cells); assay type: cell-based
T1 construct: expressed in transfected cells; host or cells: CHO (EP1-CHO)
T1 sequence (P34995 1-402): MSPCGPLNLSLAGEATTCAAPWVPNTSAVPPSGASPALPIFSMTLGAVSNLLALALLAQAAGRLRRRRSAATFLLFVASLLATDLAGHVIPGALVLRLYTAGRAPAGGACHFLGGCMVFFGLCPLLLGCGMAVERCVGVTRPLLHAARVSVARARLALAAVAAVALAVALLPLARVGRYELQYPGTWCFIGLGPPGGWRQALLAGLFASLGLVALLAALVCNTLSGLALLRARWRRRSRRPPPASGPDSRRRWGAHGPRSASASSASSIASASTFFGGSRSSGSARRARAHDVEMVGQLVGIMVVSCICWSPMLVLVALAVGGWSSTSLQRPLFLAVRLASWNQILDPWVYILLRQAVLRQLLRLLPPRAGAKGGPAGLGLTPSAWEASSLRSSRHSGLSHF
Procedure, shortened: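 Calcium 6 dye loaded 1 h at room temperature in HBSS with 1% human serum albumin, 2 µmol/L indomethacin, 2.5 mmol/L probenecid, pH 7.4; agonists then added at various concentrations. Intracellular calcium read by fluorescence (ex 480/em 540 nm) in CHO cells expressing human EP1 or Chem1 cells expressing human EP3.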

EP2 = target: T2, EP2 (Homo sapiens, UniProt P43116); experiment: agonist activity on human EP2 receptor (cAMP production, EP2-CHO cells); assay type: cell-based
T2 construct: expressed in transfected cells; host or cells: CHO (EP2-CHO)
T2 sequence (P43116 whole entry): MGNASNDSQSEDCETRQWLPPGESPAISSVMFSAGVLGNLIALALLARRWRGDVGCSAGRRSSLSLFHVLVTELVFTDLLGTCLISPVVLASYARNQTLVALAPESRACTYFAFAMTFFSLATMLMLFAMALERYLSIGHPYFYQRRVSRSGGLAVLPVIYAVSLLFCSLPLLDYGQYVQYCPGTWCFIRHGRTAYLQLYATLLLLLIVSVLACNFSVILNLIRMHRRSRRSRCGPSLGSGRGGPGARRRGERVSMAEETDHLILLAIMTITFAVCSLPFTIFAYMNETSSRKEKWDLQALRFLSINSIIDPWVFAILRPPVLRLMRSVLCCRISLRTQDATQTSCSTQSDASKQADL
Description: (§1) Using CHO cells (EP1-CHO, EP2-CHO, EP3-Chem1, EP4-CHO and IP-CHO) on which various human prostanoid receptors were forcibly expressed, the agonist activity of the test compound on the various prostanoid receptors was examined using the intracellular calcium concentration for EP1 and EP3, and the intracellular cyclic AMP (hereinafter, abbreviated as cAMP) production amount for EP2, EP4 and IP as indices.
(§2) The test compound and control substances (PGE2 and iloprost) were dissolved in dimethyl sulfoxide (DMSO) to prepare a 10 mmol/L solution. […]
(§3) On the day of the measurement, EP2-CHO, EP4-CHO, and IP-CHO were obtained by thawing frozen cells. […] The cAMP concentration was measured using a cAMP HTRF HiRange kit (CIS bio International). […] After incubation for 1 hour, time-resolved fluorescence at 620 nm and 660 nm when excited at 340 nm was measured using Synergy Neo (Bioteck), and the ratio (TRF ratio) was determined to calculate the cAMP concentration from the calibration curve.

IP = target: T3, IP (Homo sapiens, UniProt P43119); experiment: agonist activity on human IP receptor (cAMP production, IP-CHO cells); assay type: cell-based
T3 construct: expressed in transfected cells; host or cells: CHO (IP-CHO)
T3 sequence (P43119 whole entry): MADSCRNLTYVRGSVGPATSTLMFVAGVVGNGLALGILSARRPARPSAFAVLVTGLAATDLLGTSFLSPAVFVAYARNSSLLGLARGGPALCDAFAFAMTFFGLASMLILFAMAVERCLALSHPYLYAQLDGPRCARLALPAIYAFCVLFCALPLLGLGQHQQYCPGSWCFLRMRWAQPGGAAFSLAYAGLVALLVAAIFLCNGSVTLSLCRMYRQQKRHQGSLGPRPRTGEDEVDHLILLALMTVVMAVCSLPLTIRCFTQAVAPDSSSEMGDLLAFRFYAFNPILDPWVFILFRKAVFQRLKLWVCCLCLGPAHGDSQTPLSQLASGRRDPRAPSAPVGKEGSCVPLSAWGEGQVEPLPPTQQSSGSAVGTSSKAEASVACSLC
Description: as §1, §2, §3

EP4 = target: T4, EP4 (Homo sapiens, UniProt P35408); experiment: agonist activity on human EP4 receptor (cAMP production, EP4-CHO cells); assay type: cell-based
T4 construct: expressed in transfected cells; host or cells: CHO (EP4-CHO)
T4 sequence (P35408 whole entry): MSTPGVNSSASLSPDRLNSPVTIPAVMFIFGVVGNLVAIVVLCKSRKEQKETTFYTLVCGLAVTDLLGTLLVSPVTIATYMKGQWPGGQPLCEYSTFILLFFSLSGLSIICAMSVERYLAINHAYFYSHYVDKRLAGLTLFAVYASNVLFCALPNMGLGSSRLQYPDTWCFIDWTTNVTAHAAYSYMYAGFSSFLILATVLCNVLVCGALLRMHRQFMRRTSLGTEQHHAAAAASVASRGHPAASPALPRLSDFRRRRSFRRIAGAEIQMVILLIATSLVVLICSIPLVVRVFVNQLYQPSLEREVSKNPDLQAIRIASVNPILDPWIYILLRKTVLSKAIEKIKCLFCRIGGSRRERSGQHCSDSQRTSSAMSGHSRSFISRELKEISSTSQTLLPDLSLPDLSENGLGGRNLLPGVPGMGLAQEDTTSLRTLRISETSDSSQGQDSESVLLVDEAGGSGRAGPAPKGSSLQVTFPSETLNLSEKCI
Description: as §1, §2, §3

[1] = tested on: rat renal ischemia reperfusion (IR) model; experiment: in vivo drug efficacy in rat renal ischemia reperfusion (IR) model; set-up: species or system Crl : CD (SD) rats; conditions: subcutaneous osmotic pump
Description: The effect of the present compound on renal IR damage was evaluated using male rats.
Male Crl : CD (SD) rats aged 3 or 4 weeks were purchased from Charles River Laboratories Japan, and subjected to experiments. Animals were fed ad libitum with FR-2 (Funabashi Farm) at the time of arrival and with solid feed CE-2 (CLEA Japan) for one week before single kidney removal, and watered ad libitum.
After acclimation breeding, the right kidney was removed about 7 days before renal IR treatment. Specifically, the rats were allowed to inhale isoflurane (Mylan) for anesthesia, and administered buprenorphine (Otsuka Pharmaceutical) as an analgesic at 0.01 mg/kg. The right back was incised, the right kidney was removed, and then the incision was sutured.
Renal IR treatment was performed about 7 days after single kidney removal. Specifically, rats were anesthetized by intraperitoneal administration of sodium pentobarbital (Tokyo Chemical Industry) at a dose of 50 mg/kg, and administered buprenorphine as an analgesic at 0.01 mg/kg. The left abdomen was incised, and the renal artery and vein was sandwiched with a clamp (Natsume Seisakusho) to cause ischemia for 35 minutes. During ischemia, the rats were allowed to lie on a heat-retaining plate set at 38°C, and after 35 minutes, the clamp was removed for reperfusion. After visually confirming that blood flow to the kidney was recovered, the incision was sutured. The sham group was a sham-operated group in which neither ischemia nor reperfusion treatment was performed.
Animals were distributed on the day before renal IR treatment such that differences in the mean of the body weight in each group were not biased, and assigned animal numbers.
The compound of Example 7 (test substance) and physiological saline (Otsuka Pharmaceutical) as a vehicle were subcutaneously administered at 5 mL/kg using an injection needle 5 minutes before renal IR treatment. Saline was administered to the sham group in the same test. The administration dose is described in Table 16.
Specifically, the rats were allowed to inhale isoflurane for anesthesia on the day before renal IR treatment, and administered buprenorphine as an analgesic at 0.01 mg/kg. […] The incision was bonded with Dermabond Advanced (Johnson & Johnson). A pump containing a vehicle was also embedded in the sham group in the same test. The administration dose is described in Table 16.
After renal IR treatment, blood was collected through the tail vein on Day1, Day2, and Day3 to obtain serum. In addition, after renal IR treatment, rats were euthanized by exsanguination through the abdominal aorta under isoflurane anesthesia on Day3.
The respective concentrations of serum creatinine (sCre) and blood urea nitrogen (BUN) were measured using an automatic analyzer 7180 (Hitachi High-Tech).

EP3 receptor = target: T5, EP3 receptor (Homo sapiens, UniProt P43115); experiment: agonist activity on human EP3 receptor (intracellular calcium concentration, EP3-Chem1 cells); assay type: cell-based; conditions: agonist activity on the EP3 receptor
T5 construct: expressed in transfected cells; host or cells: EP3-Chem1
T5 sequence (P43115 1-390): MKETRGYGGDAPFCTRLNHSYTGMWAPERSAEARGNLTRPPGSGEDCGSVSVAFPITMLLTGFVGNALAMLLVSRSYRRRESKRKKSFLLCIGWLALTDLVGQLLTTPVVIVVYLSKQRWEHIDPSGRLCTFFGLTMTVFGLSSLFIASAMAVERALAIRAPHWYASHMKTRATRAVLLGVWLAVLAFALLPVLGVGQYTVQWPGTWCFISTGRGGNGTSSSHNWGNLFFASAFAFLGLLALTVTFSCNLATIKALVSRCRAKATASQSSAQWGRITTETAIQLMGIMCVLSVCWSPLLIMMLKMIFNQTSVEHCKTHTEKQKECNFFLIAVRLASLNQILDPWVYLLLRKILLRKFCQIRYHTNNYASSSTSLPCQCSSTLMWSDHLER
Description: as §1
The test compound and control substances (PGE2 and iloprost) were dissolved in dimethyl sulfoxide (DMSO) to prepare a 10 mmol/L solution. The prepared 10 mmol/L solution was thawed at the time of use, serially diluted using DMSO, and diluted with a buffer solution 1 for measurement (Hank's balanced salt solution (Thermofischer scientific) containing 1 w/v% human serum albumin (Sigma), 2 µmol/L indomethacin (Sigma), 2.5 mmol/L probenecid, and 10 mmol/L HEPES-NaOH (pH7.4)) or a buffer solution 2 for measurement (D-PBS (Nacalai Tesque) containing 0.1 w/v% human serum albumin, 2 µmol/L diclofenac (Sigma), and 1 mmol/L 3-isobutyl-1-methylxanthine (Sigma)) to perform experiments.

## (1R,2R,3aS,10aR)-1-{(1E,3ξ)-3-[1-(2,5-difluorophenyl)cyclobutyl]-3-hydroxy-1-propen-1-yl}-2-hydroxy-2,3,3a,9,10,10a-hexahydro-1H-benzo[b]cyclopenta[f]oxepine-6-carboxylic acid [Example 7-30]
EP1
  pEC50: < 5.00
EP2
  pEC50: < 5.00
IP
  pEC50: < 5.00
EP4
  pEC50: 5.82
[1]; IR 0.3 µg/kg/min, day 1
  blood urea nitrogen (BUN) concentration mean: 96.6
  serum creatinine (sCre) concentration mean: 1.78
[1]; IR 0.3 µg/kg/min, day 2
  blood urea nitrogen (BUN) concentration mean: 94.3
  serum creatinine (sCre) concentration mean: 1.42
[1]; IR 0.3 µg/kg/min, day 3
  blood urea nitrogen (BUN) concentration mean: 79.8
  serum creatinine (sCre) concentration mean: 1.00
[1]; IR 3.0 µg/kg/min, day 1
  blood urea nitrogen (BUN) concentration mean: 89.5
  serum creatinine (sCre) concentration mean: 1.45
[1]; IR 3.0 µg/kg/min, day 2
  blood urea nitrogen (BUN) concentration mean: 81.8
  serum creatinine (sCre) concentration mean: 1.10
[1]; IR 3.0 µg/kg/min, day 3
  blood urea nitrogen (BUN) concentration mean: 70.7
  serum creatinine (sCre) concentration mean: 0.83
EP3 receptor
  pEC50: 7.40
